Data taken from US20230398130A1, “METHODS AND COMPOSITIONS FOR DIFFERENTIATING STEM CELLS” (Massachusetts Institute of Technology, priority 2020, published 2023).

Key:
[1] = tested on: ISC-enriched organoids; experiment: Primary screen, 384-well 2.5-D organoid differentiation (ENR+CD, 6 days, Target Selective Inhibitor Library, vs whole-plate median): ATP (CellTiter-Glo 3D, CTG); conditions: for Dose.FC.CTG: ENR+CD, 6 days, FC vs plate median; for Z.CTG: standard z score of FC
[2] = tested on: ISC-enriched organoids; experiment: Primary screen, 384-well 2.5-D organoid differentiation (ENR+CD, 6 days): basal lysozyme secretion (LYZ.NS); format: cell-based, murine; conditions: for Dose.FC.LYZ.NS: ENR+CD, 6 days, FC vs plate median; for Z.LYZ.NS: standard z score of FC
From the text: (§1) High-throughput screening.

[3] = tested on: ISC-enriched organoids; experiment: Primary screen, 384-well 2.5-D organoid differentiation (ENR+CD, 6 days): carbachol-induced lysozyme secretion (LYZ.S); format: cell-based, murine; conditions: ENR+CD, 6 days, FC vs plate median
From the text: as §1

| SMILES | Dose.FC.CTG ([1]; Dose 0.08 uM) | Z.CTG ([1]; Dose 0.08 uM) | Dose.FC.CTG ([1]; Dose 0.40 uM) | Z.CTG ([1]; Dose 0.40 uM) | Dose.FC.CTG ([1]; Dose 2.00 uM) | Z.CTG ([1]; Dose 2.00 uM) | Dose.FC.CTG ([1]; Dose 10.00 uM) | Z.CTG ([1]; Dose 10.00 uM) | Dose.FC.LYZ.NS ([2]; Dose 0.08 uM) | Z.LYZ.NS ([2]; Dose 0.08 uM) | Dose.FC.LYZ.NS ([2]; Dose 0.40 uM) | Z.LYZ.NS ([2]; Dose 0.40 uM) | Dose.FC.LYZ.NS ([2]; Dose 2.00 uM) | Z.LYZ.NS ([2]; Dose 2.00 uM) | Dose.FC.LYZ.NS ([2]; Dose 10.00 uM) | Z.LYZ.NS ([2]; Dose 10.00 uM) | Dose.FC.LYZ.S ([3]; Dose 0.08 uM) | Dose.FC.LYZ.S ([3]; Dose 0.40 uM) | Dose.FC.LYZ.S ([3]; Dose 2.00 uM) | Dose.FC.LYZ.S ([3]; Dose 10.00 uM) |
| --- | --- | --- | --- | --- | --- | --- | --- | --- | --- | --- | --- | --- | --- | --- | --- | --- | --- | --- | --- | --- |
| CC1(COc2ccc3c(c2)ncn3-c2ccc3cccc(N4CCC(N)CC4)c3n2)COC1 [Crenolanib (CP-868596)] | −0.069 log 2 fold change | −0.165 | −0.025 log 2 fold change | −0.059 | 0.053 log 2 fold change | 0.127 | −0.338 log 2 fold change | −0.808 | 0.121 log 2 fold change | 1.051 | 0.051 log 2 fold change | 0.441 | 0.122 log 2 fold change | 1.065 | −0.224 log 2 fold change | −1.951 | 0.094 log 2 fold change | 0.043 log 2 fold change | 0.149 log 2 fold change | −0.292 log 2 fold change |
| C[C@H]1COC2=C1C(=O)C(=O)c1c2ccc2c1CCCC2(C)C [Cryptotanshinone] | 0.199 log 2 fold change | 0.475 | −0.027 log 2 fold change | −0.065 | −0.184 log 2 fold change | −0.439 | −0.541 log 2 fold change | −1.292 | 0.143 log 2 fold change | 1.243 | −0.120 log 2 fold change | −1.047 | −0.182 log 2 fold change | −1.585 | −0.288 log 2 fold change | −2.506 | 0.156 log 2 fold change | −0.105 log 2 fold change | −0.288 log 2 fold change | −0.432 log 2 fold change |
| c1ccc(CNc2nc(NCc3ccccc3)c3ccccc3n2)cc1 [DBeQ] | 0.119 log 2 fold change | 0.285 | −0.013 log 2 fold change | −0.031 | 0.004 log 2 fold change | 0.010 | −1.133 log 2 fold change | −2.706 | 0.097 log 2 fold change | 0.844 | 0.064 log 2 fold change | 0.558 | −0.048 log 2 fold change | −0.414 | −0.296 log 2 fold change | −2.577 | 0.045 log 2 fold change | 0.210 log 2 fold change | −0.103 log 2 fold change | −0.423 log 2 fold change |
| CNC(=O)c1cc(Oc2ccc(NC(=O)Nc3cc(C(C)(C)C)nn3-c3ccc4ncccc4c3)c(F)c2)ccn1 [DCC-2036 (Rebastinib)] | 0.216 log 2 fold change | 0.516 | 0.218 log 2 fold change | 0.520 | −0.038 log 2 fold change | −0.091 | −0.322 log 2 fold change | −0.769 | 0.259 log 2 fold change | 2.256 | 0.128 log 2 fold change | 1.116 | 0.073 log 2 fold change | 0.637 | −0.209 log 2 fold change | −1.823 | 0.358 log 2 fold change | 0.186 log 2 fold change | 0.054 log 2 fold change | −0.244 log 2 fold change |
| CC(C)Oc1ccc(-c2cnc3c(-c4ccnc5ccccc45)cnn3c2)cc1 [DMH1] | −0.031 log 2 fold change | −0.075 | −0.079 log 2 fold change | −0.188 | −0.002 log 2 fold change | −0.004 | −0.001 log 2 fold change | −0.003 | 0.018 log 2 fold change | 0.155 | 0.026 log 2 fold change | 0.231 | 0.014 log 2 fold change | 0.124 | −0.075 log 2 fold change | −0.657 | 0.078 log 2 fold change | 0.054 log 2 fold change | 0.035 log 2 fold change | −0.092 log 2 fold change |
| Cc1ccc2c(=O)c3cccc(CC(=O)O)c3oc2c1C [DMXAA (Vadimezan)] | −0.568 log 2 fold change | −1.357 | −0.629 log 2 fold change | −1.502 | −0.477 log 2 fold change | −1.139 | −0.230 log 2 fold change | −0.550 | −0.007 log 2 fold change | −0.065 | −0.036 log 2 fold change | −0.317 | −0.038 log 2 fold change | −0.334 | −0.031 log 2 fold change | −0.271 | −0.091 log 2 fold change | −0.009 log 2 fold change | −0.094 log 2 fold change | −0.118 log 2 fold change |
| CC(C)(C)c1nc(-c2cccc(NS(=O)(=O)c3c(F)cccc3F)c2F)c(-c2ccnc(N)n2)s1 [Dabrafenib (GSK2118436)] | −0.134 log 2 fold change | −0.320 | 0.011 log 2 fold change | 0.026 | −0.279 log 2 fold change | −0.667 | −0.800 log 2 fold change | −1.911 | 0.095 log 2 fold change | 0.830 | 0.049 log 2 fold change | 0.427 | −0.001 log 2 fold change | −0.006 | −0.250 log 2 fold change | −2.178 | 0.236 log 2 fold change | 0.103 log 2 fold change | 0.019 log 2 fold change | −0.384 log 2 fold change |
| CCC(CC)CC1(C(=O)Nc2ccccc2SC(=O)C(C)C)CCCCC1 [Dalcetrapib (JTT-705, RO4607381)] | 0.112 log 2 fold change | 0.268 | −0.006 log 2 fold change | −0.014 | 0.079 log 2 fold change | 0.188 | 0.136 log 2 fold change | 0.324 | 0.055 log 2 fold change | 0.475 | −0.037 log 2 fold change | −0.324 | −0.034 log 2 fold change | −0.296 | −0.074 log 2 fold change | −0.643 | 0.049 log 2 fold change | 0.104 log 2 fold change | 0.098 log 2 fold change | −0.113 log 2 fold change |
